Results reported in patent US8937063B2 (Trustees of Tufts College, priority 2010, dated 2015).

Experiments:
[1] = system: adiponectin mRNA; test: qPCR of adipose mRNA in HF/HS hamsters; assay type: in vivo, hamster; settings: ARI-001 2240 mg/kg oral 18 days; relative to mean of vehicle
Text: Hamster livers and adipose were preared in manners similar to that described for ARI-001 concentration determination. Briefly, to prepare for analysis, a sample of liver was excised from the frozen mass, weighed, and homogenized with a tissue grinder followed by sonication in buffer. The solid materials were then removed by centrifugation. The resulting lysate was used in qPCR analysis to quantify the specific mRNA measured (vide infra) using primers designed for the specific sequences of interest. All mRNA quantities were normalized to vehicle-treated animal, and mRNA levels were expressed as a fold increase or decrease relative to vehicle-treated. […] During grinding, liquid nitrogen was added to ensure the sample of adipose remained solid. The ground sample was transferred to a tared tube to weigh total sample. This ground sample was treated with buffer and prepared for qPCR to quantify specific mRNA quantities.

[2] = ARI-001 plasma, liver and adipose concentrations correlated with lipid parameters; assay type: in vivo, hamster; settings: 18-day study; p<0.01 for each pair
Method: Plasma from the 19 hamsters dosed with ARI-001 in the above described 18-day study was analyzed for concentrations of ARI-001. Concentrations were determined for these samples, which were collected 24 hours after the final dose was administered. Briefly, plasma drug concentrations for the non-GLP pharmacokinetic experiments were determined by LC-MS using an Applied Biosystems 4000Qtrap spectrometer with electrospray ionization. Samples were prepared for analysis by precipitation of plasma proteins with cold methanol. HPLC of the samples was done with an Agilent Eclipse C18 column and a methanol/water gradient containing 0.1% formic acid and 5 mM ammonium acetate. ARI-001 was detected using multiple reaction monitoring (MRM) in the positive ion mode. For quantitation, a standard curve was measured by addition of known amounts of ARI-001 to plasma from untreated animals and preparing in a manner identical to the samples from treated animals. All plasma samples were spiked with 10 ng/mL of isotope-enriched ARI-001 which served as an internal standard for the LC-MS measurements. […] Pearson r values were determined using all data points, as was the two-tailed P-value for the data set. […]
FIG. 8 graphs the correlation between concentrations of ARI-001 in plasma versus liver (left), and in plasma versus adipose (right). […] Pearson r was determined using all data points illustrated. […]

[3] = system: high fat-fed hamsters; test: Liver function tests (AST, ALT) in plasma of chronically dosed hamsters; assay type: in vivo, hamster; settings: vs vehicle
Method: In order to investigate this, we examined the common liver functional enzymes AST and ALT in the plasma of hamsters from experiment described above in Example 3. These animals were dosed for 18 consecutive days, while being on a HF/HS diet for a total of nearly 5 weeks. We also examined the glucose levels in the plasma of these animals. For pharmacokinetic studies, we utilized wild type mice for both single and repeated administration study. Finally, pharmacokinetic studies were corroborated by data from single and repeated administration to monkeys.
This led to an investigation of liver function tests (AST, ALT) from plasma of hamsters dosed for 18 days with ARI-001. AST and ALT were measured using commercially available kits (Bio-Quant Diagnostic Kits, San Diego, Calif.). As expected, AST and ALT values from untreated hamsters (vehicle group) were very high, as the high fat diet leads to hepatomegaly and fatty liver. This disease state is reflected in the elevated AST and ALT levels.

[4] = system: high fat+fructose (HF/HS) diet hamsters; test: FPLC cholesterol subpopulation traces of pooled hamster plasma; assay type: in vivo, male Golden Syrian hamsters; settings: ARI-001 2240 mg/kg 18 days, vs vehicle
Method: Fast protein liquid chromatography (FPLC) was used to separate the different cholesterol subpopulations from samples of hamster plasma. Briefly, plasma from each animal within a given cohort was pooled together and applied to an AKTA liquid handling system with a Superose 6 10/300 GL column (product #14-5172-01, GE Life Sciences). 250 μL of sample was applied to the injection system, diluted with 5 mL of buffer (100 mM Na2HPO4, 100 mM NaCl, pH 7.5), loaded onto the column, and eluted with 23.5 mL of buffer at a flow rate of 1.0 mL/min, into fractions of size 0.24 mL. Each fraction was individually measured for cholesterol concentration using the total cholesterol kit from Wako as described above with the following modification: sample volume was increased to 30 μL and the reagent volume was decreased to 60 μL.
FPLC traces produce continuous curves with three distinct peaks, representing each of the cholesterol subpopultions: VLDL, LDL, and HDL. Because the column used in this experiment is a size-exclusion column, the largest particles appear first, while the smallest appear last. […]
The measured HDL values were borderline significant (p=0.06) between the 2240 mg/kg ARI-001 group and vehicle. There was a considerable increase in significance when considering the calculated HDL/TC values. […]

- correlations of plasma versus liver and plasma versus adipose concentrations [2]: highly statistically significant
Compound: O=C(O)c1ccc(CCN2CCOCC2)nc1 [ARI-001]
- Adipose Adiponectin mRNA per mg tissue [1]: 2.00 ± 0.23 fold-change
- AST ([3]; 2240 mg/kg oral 18 days): drastically reduced
- ALT ([3]; 1120 and 2240 mg/kg oral 18 days, dose-dependent): similarly reduced
- FPLC HDL curve [4]: notably larger
- FPLC VLDL and LDL peaks [4]: considerably decreased compared to vehicle
